Two compounds from patent US20090088376A1, “DENDRIMER BASED COMPOSITIONS AND METHODS OF USING THE SAME” (priority 2007, published 2009) can be followed below.

The conditions of data set [1]: mouse, in vivo.
Experimental: (§1) Twice weekly, SCID mice with s.c. KB xenografts, starting on day 4 after tumor implantation, received via the tail vein an injection of either targeted or nontargeted conjugate containing methotrexate, a conjugate without methotrexate, free methotrexate, or saline as a control. The compounds were delivered in a 0.2 mL volume of saline per 20 g of mouse. The single dose of methotrexate delivered each time equaled 0.33 mg/kg. The higher doses of 1.67 and 3.33 mg/kg free methotrexate were also tested. The conjugates were delivered at equimolar concentration of methotrexate calculated based on the number of methotrexate molecules present in a nanoparticle. The conjugate without methotrexate was delivered at equimolar concentration of dendrimer. In the initial trial, six groups of mice with five mice in each group received up to 15 injections. In the follow-up trial, mice received up to 28 injections dependent on their survival. The body weights of the mice were monitored throughout the experiment as an indication of adverse effects of the drug. Histopathology of multiple organs was done at the termination of each trial and each time mouse had to be euthanized due to toxic effects or tumor burden. Tissues from lung, heart, liver, pancreas, spleen, kidney, and tumor were analyzed.
(§2) At each time point, a gross examination and histopathology of the liver, spleen, kidney, lung, and heart were done.
Data set [2] can be described thus: Toxicity of dendrimer conjugates and free methotrexate (body weight, histopathology).
Experimental: as §1, §2
Data set [3] has as its system KB cells. As to the kind of experiment: Inhibition of cell growth (XTT assay / total cell protein). The format is cell-based, human. The method, then:
Cell culture and treatment.
Evaluation of dendrimer cytotoxicity. Cell growth was determined by assay of the total protein in lysates of treated cells using a bicinchoninic acid reagent (PIERCE, and by XTT assay, using a kit from Roche.
Because the binding of the conjugate to KB cells reaches maximal uptake within 1 h (Quintana et al, 2002. Pharmaceutical Research 19: 1310-1316.), the effect of the G5-FI-FA-MTX on cell growth was initially tested by pre-incubation of cells with the conjugate for 1 h, followed by incubation in a drug-free medium for 5 d. […] When the cells were pre-incubated with dendrimers for 4 h, there was a modest decrease of about 10% in cell growth as determined by XTT assay. The cytotoxicity measurements were therefore done by incubation with the dendrimer for a minimum of 24 h, a pre-incubation time period shown to induce significant cytotoxicity.
Time course and dose dependent inhibition of cell growth. Previous studies have shown that MTX-induced cytotoxicity is detectable in vitro only if the medium is completely deprived of FA (See, e.g., Sobrero & Bertino, Int. J. Cell Cloning 4, 51 (1986)). The effect of the trifunctional dendrimers on cell growth was tested in cells incubated in a FA-deficient medium. Cells were treated with 300 nM conjugates (equivalent of 1500 nM MTX) or 1500 nM free MTX for 1-4 days, and cell proliferation was determined by estimation of cellular protein content. Cells were treated for 2 days with different concentrations of the conjugates or free MTX (the conjugate concentration is given as MTX equivalents, with 5 MTX per dendrimer molecule). KB cells which express high and low FAR were incubated with 30 nM of the dendrimers for 1 hr at 37° C., rinsed, and the fluorescence of cells was determined by flow cytometric analysis (See. e.g., FIG. 21, left panel). Pre-incubation with 50 µM free FA for 30 min totally prevents cellular binding and uptake of the polymer conjugates (See. e.g., FIG. 21, left panel).
The inhibition of cell growth induced by the conjugates was also tested by XTT assay which is based on the conversion of XTT to formazan by the active mitochondria of live cells (See, e.g., Roehm et al, J Immunol Methods 142, 257 (1991)).
(Tetrazolium dyes change colour on reduction, which living cells bring about.)

The test system of data set [4] is s.c. human KB xenografts. As to the kind of experiment: Targeted drug delivery: tumor growth and survival. The format is in vivo, SCID mice. The note with it: for effect on tumor growth: first trial. The procedure:
Tumor cell line. The KB human cell line, which overexpresses the folate receptor (See, e.g., Turek et al, J Cell Sci 106, 423 (1993)), was purchased from the American Type Tissue Collection (Manassas, Va.) and maintained in vitro at 37° C., 5% CO2 in folate-deficient RPMI 1640 supplemented with penicillin (100 units/mL), streptomycin (100 μg/mL), and 10% heat-inactivated fetal bovine serum. Before injection in the mice, the cells were harvested with trypsin-EDTA solution, washed, and resuspended in PBS. The cell suspension (5×10^6 cells in 0.2 mL) was injected s.c. into one flank of each mouse using a 30-gauge needle. In the biodistribution studies, the tumors were allowed to grow for 2 weeks until reaching ˜0.9 cm^3 in volume. The formula chosen to compute tumor volume was for a standard volume of an ellipsoid, where V=4/3π(½ length×½ width×½ depth). With an assumption that width equals depth and […], the formula used was V=½×length×width^2. Targeted drug delivery using conjugate injections was started on the fourth day after implantation of the KB cells.
Delivery of targeted nanoparticle therapeutic.
Statistical methods. Means, SD, and SE of the data were calculated. Differences between the experimental groups and the control groups were tested using Student's-Newman-Keuls' test and Ps<0.05 were considered significant.
Targeted drug delivery to tumor cells through the folate receptor. The efficacy of different doses of conjugates was tested on SCID CB-17 mice bearing s.c. human KB xenografts and was compared with equivalent and higher doses of free methotrexate. Mice were maintained on the folic acid-deficient diet for 3 weeks before injection of the KB tumor cells to achieve circulating levels of folic acid that approach those in human serum and to prevent down-regulation of folate receptors on tumor xenografts (See, Mathias et al., J Nucl Med 29, 1579 (1998)). Six groups of SCID mice with five mice in each group were injected s.c. on one flank with 5×10^6 KB cells in 0.2 mL PBS suspension. The highest total dose of G5-FI-FA-MTX therapeutic used equals 55.0 mg/kg and is equivalent to a 5.0 mg/kg total cumulative dose of free methotrexate (FIG. 29). The therapeutic dose of the conjugate was compared with three cumulative doses of free methotrexate equivalent to 33.3, 21.7, and 5.0 mg/kg accumulated in 10 to 15 injections based on mouse survival. Saline and the conjugate without methotrexate (G5-FT-FA) were used as controls.

The test system of data set [5] is SCC15 cells. The data set is described as follows: XTT cell proliferation assay. The format is cell-based, human. Particulars: methotrexate 100 nM, G5-FI-EGF 100 nM, 3 days. The procedure: XTT assay. For cytotoxicity experiments, cells (2500 cells/well) were seeded in 96-well microtiter plates in DMEM containing 10% FCS. The cells were treated either with 100 nM each of the conjugates for 72 h. A calorimetric XTT assay, Roche Molecular Biochemicals (Indianapolis, Ind.) was performed following the vendor's protocol. After incubation with an XTT labeling mixture, microtiter plates were read on an ELISA reader (SYNERGY HT, BIOTEK) at 492 nm with the reference wavelength at 690 nm. Vehicle-treated cells were assigned a value of 100%.

A value given as a limit tells only on which side of the number the result lay.

As to `CN(Cc1cnc2nc(N)nc(N)c2n1)c1ccc(C(=O)N[C@@H](CCC(=O)O)C(=O)O)cc1` [MTX, methotrexate], in data set [1], the “histopathology of the liver” value is “advanced liver lesions, collections of inflammatory cells, and periportal inflammation”. Also, in data set [2] (cumulative doses 33.3 and 21.7 mg/kg), the “day of trial by which doses became lethal” value fell in the range of 32 to 36 days. The toxicity result in data set [2] (total accumulated dose equivalent to 5.0 mg/kg free methotrexate) is given as “nor free methotrexate at the same dose were toxic”. Further, the “inhibition of cell growth” value in data set [3] (XTT assay, 1, 2 or 3 days) is “time-dependent cytotoxicity”. Also, the “growth inhibition of free MTX compared with conjugate” value in data set [3] (equimolar MTX, below 1 μM) was “higher than with the equimolar concentrations of MTX in the G5-FITC-FA-MTX”. The “effect on tumor growth” value in data set [4] (cumulative 33.3 and 21.7 mg/kg) was “affecting tumor growth”. The “effect on tumor growth” value in data set [4] (dose equivalent to 5.0 mg/kg cumulative methotrexate (or equimolar dendrimer)) is given as “no effect on tumor growth”. Moreover, in data set [4] (second 99-day trial), the “day of trial by which all mice died” value is no more than 66 days and the “survivors at the termination of the trial” value is reported as “no mice surviving”. Further, the “inhibition of cell growth in G5-FI-EGF-treated cells” value in data set [5] is reported as “inhibited cell growth in the G5-FI-EGF-treated cells to a greater extent than its inhibition of control cells”.

Take `Nc1nc2ncc(CNc3ccc(C(=O)N[C@@H](CCC(=O)O)C(=O)O)cc3)nc2c(=O)[nH]1` [FA, folic acid]: the “reversal by free FA of growth-arrest caused by MTX” value in data set [3] (150 nM FA, 150 nM MTX, 24 h then 6 d fresh medium, total cell protein) is listed as “almost completely reversed”. In data set [3] (50 μM FA with MTX or G5-FITC-FA-MTX 24 h, then 5 days, XTT), the “increase of cell growth above control cells by excess free FA” value is 20%.
